# Laboratory results taken from patent publication US4760087A, “Phenol derivatives and pharmaceutical compositions containing these compounds” (Gruenenthal GmbH, priority 1985, dated 1988).
# pIC50: −log10 of the molar value.
# Target: T1, 5-lipoxygenase (Rattus norvegicus, UniProt P12527)
# T1 construct: endogenous in cells; host or cells: rat basophilic leukemia cells
# T1 sequence (P12527 1-673): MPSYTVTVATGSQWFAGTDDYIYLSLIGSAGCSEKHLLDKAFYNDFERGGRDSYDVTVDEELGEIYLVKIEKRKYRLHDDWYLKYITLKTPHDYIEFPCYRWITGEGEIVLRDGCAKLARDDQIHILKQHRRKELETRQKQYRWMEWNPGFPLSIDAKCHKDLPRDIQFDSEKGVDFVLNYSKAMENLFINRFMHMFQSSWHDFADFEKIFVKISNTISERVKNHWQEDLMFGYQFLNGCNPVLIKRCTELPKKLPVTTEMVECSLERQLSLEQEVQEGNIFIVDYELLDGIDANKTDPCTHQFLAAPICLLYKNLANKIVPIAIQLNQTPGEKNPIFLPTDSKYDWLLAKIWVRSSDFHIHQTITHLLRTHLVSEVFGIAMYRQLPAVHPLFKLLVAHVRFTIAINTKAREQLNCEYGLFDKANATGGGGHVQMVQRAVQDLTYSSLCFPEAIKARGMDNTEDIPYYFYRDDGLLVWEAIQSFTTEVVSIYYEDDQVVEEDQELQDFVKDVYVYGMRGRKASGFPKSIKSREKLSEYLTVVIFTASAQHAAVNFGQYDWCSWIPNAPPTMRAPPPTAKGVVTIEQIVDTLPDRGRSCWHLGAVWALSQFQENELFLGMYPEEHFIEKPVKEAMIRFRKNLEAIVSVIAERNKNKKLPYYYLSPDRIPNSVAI
# Test: Inhibition of 5-lipoxygenase in rat basophilic leukemia cells (5-HETE and LTB4 formation from [14C]-arachidonic acid)
# Type: cell-based
# Conditions: indomethacin 10 μM, A 23187, room temperature, 5 minutes, read-out: IC50 for inhibition of 5-lipoxygenase (I)
# Protocol: To determine the inhibition of 5-lipoxygenase rat basophilic leukemia cells were cultured in vitro, and after a cell concentration of about 10^6 cells/ml had been obtained, the cells were harvested by centrifugation at 400 g. The precipitate was suspended in 50 mM potassium phosphate buffer of pH 7.4 at 1.5×10^7 cells/ml.
# To 1 ml each of this suspension there was added indomethacin (10 μM) and calcium chloride (2 mM) and then the mixture was incubated in presence or absence of a test compound with [^14 C]-arachidonic acid and the calcium ionophore A 23 187 [Chaney et al., J. Am. Chem. Soc. 96: 1932-3 (1974)] at room temperature for 5 minutes. The mixture was acidified to pH 5 and extracted with ethyl acetate to isolate the metabolites of arachidonic acid formed by the enzymatic action of 5-lipoxygenase. These were separated by thin layer chromatography using a solvent mixture known to be suitable for leukotriene analysis [c.f. Jakschik et al., Biochem. Biophys. Res. Commun. 102, 624 (1984)]. The distribution of the radioactivity among the different metabolites was measured with a Thin Layer Scanner (TLC linear analyzer). By bringing into relationship the percentages of the amount of 5-hydroxyeicosatetraenoic acid (5-HETE) and leukotriene B4 (LTB4) formed under the action of 5-lipoxygenase to the amount or the concentration, respectively, of the total radioactivity used and of the test compound of formula I the "IC50 -value I" (i.e. the concentration of the test compound which causes an 50%-inhibition of the 5-lipoxygenase) is determined.
row,Structure (SMILES),pIC50
1,"Oc1ccc(C#CCCCCCCC#CC(O)C2CCCCC2)cc1O (stereo not drawn) [Example 16, 11-Cyclohexyl-1-(3',4'-dihydroxyphenyl)-11-hydroxy-undeca-1,9-diyne]",6.55
2,"COc1cc(C#CCCCCCCC#CCO)cc(OC)c1O [Example 18, 1-(3',5'-Dimethoxy-4'-hydroxyphenyl)-11-hydroxy-undeca-1,9-diyne]",7.00

# Further lines, results first:
row,pIC50,Structure (SMILES)
1,5.54,"Oc1ccc(C#CCCCCCC/C=C/C(O)C2CCCCC2)cc1O (stereo not drawn) [Example 22c, 11-Cyclohexyl-1-(3',4'-dihydroxphenyl)-11-hydroxy-undec-9E-en-1-yne]"
2,5.55,"Oc1ccc(/C=C\CCCCCC/C=C/C(O)C2CCCCC2)cc1O (stereo not drawn) [Example 22d, 11-Cyclohexyl-1-(3',4'-dihydroxyphenyl)-11-hydroxy-undeca-1Z,9E-diene]"

# Target: T2, cyclooxygenase (Ovis aries, UniProt P05979)
# T2 construct: suspension of sheep seminal vesicle microsomes; from tissue; host or cells: sheep seminal vesicle microsomes
# T2 sequence (P05979 25-600): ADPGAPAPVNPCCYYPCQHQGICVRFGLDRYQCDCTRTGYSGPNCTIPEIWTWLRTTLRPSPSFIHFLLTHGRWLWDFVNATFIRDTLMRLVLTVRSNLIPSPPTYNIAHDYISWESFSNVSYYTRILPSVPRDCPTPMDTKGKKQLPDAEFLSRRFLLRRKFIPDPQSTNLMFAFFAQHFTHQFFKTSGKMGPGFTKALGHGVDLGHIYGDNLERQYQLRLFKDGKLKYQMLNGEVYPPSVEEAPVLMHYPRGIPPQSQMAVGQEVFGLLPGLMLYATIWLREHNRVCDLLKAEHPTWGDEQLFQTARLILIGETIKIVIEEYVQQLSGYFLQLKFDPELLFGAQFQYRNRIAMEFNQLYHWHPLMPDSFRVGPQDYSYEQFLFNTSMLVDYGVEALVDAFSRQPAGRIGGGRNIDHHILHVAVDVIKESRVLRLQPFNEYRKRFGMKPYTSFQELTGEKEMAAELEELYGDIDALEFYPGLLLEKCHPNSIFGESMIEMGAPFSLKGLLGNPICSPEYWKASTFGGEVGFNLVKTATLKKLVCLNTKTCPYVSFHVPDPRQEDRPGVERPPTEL
# Test: Inhibition of cyclooxygenase in sheep seminal vesicle microsomes
# Type: biochemical
# Conditions: cyclooxygenase IC50 (II) / 5-lipoxygenase IC50 (I)
# Protocol: The effect of the test compounds on the activity of cyclooxygenase was tested usinfg a suspension of sheep seminal vesicle microsomes in 50 mM potassium phosphate buffer of pH 7.5 which was incubated for 10 minutes at room temperature with the test compound and [^14 C]-arachidonic acid. After acidification with glacial acetic acid the mixture was extracted with ethyl acetate and the residue obtained after evaporation of the extract separated by thin layer chromatography on plates precoated with silica gel using the solvent system ether/hexane/glacial acetic acid (50:50:1).
row,Structure (SMILES),Quotient IC50 II/IC50 I
1,"Oc1ccc(C#CCCCCCCC#CC(O)C2CCCCC2)cc1O (stereo not drawn) [Example 16, 11-Cyclohexyl-1-(3',4'-dihydroxyphenyl)-11-hydroxy-undeca-1,9-diyne]",132.1
2,"COc1cc(C#CCCCCCCC#CCO)cc(OC)c1O [Example 18, 1-(3',5'-Dimethoxy-4'-hydroxyphenyl)-11-hydroxy-undeca-1,9-diyne]",380.0

# The remaining lines, values ahead:
row,Quotient IC50 II/IC50 I,Structure (SMILES)
1,44.8,"Oc1ccc(C#CCCCCCC/C=C/C(O)C2CCCCC2)cc1O (stereo not drawn) [Example 22c, 11-Cyclohexyl-1-(3',4'-dihydroxphenyl)-11-hydroxy-undec-9E-en-1-yne]"
2,64.3,"Oc1ccc(/C=C\CCCCCC/C=C/C(O)C2CCCCC2)cc1O (stereo not drawn) [Example 22d, 11-Cyclohexyl-1-(3',4'-dihydroxyphenyl)-11-hydroxy-undeca-1Z,9E-diene]"

# Same assay, conditions: sheep seminal vesicle microsomes, pH 7.5, 10 minutes, room temperature; read-out: IC50 for inhibition of cyclooxygenase (II)
row,Structure (SMILES),pIC50
1,"Oc1ccc(C#CCCCCCCC#CC(O)C2CCCCC2)cc1O (stereo not drawn) [Example 16, 11-Cyclohexyl-1-(3',4'-dihydroxyphenyl)-11-hydroxy-undeca-1,9-diyne]",4.43
2,"COc1cc(C#CCCCCCCC#CCO)cc(OC)c1O [Example 18, 1-(3',5'-Dimethoxy-4'-hydroxyphenyl)-11-hydroxy-undeca-1,9-diyne]",4.42

# The remaining lines, values ahead:
row,pIC50,Structure (SMILES)
1,3.89,"Oc1ccc(C#CCCCCCC/C=C/C(O)C2CCCCC2)cc1O (stereo not drawn) [Example 22c, 11-Cyclohexyl-1-(3',4'-dihydroxphenyl)-11-hydroxy-undec-9E-en-1-yne]"
2,3.74,"Oc1ccc(/C=C\CCCCCC/C=C/C(O)C2CCCCC2)cc1O (stereo not drawn) [Example 22d, 11-Cyclohexyl-1-(3',4'-dihydroxyphenyl)-11-hydroxy-undeca-1Z,9E-diene]"

# Test system: Sprague-Dawley-rats
# Test: Inhibition of kaolin-induced paw oedema, test compound given intraperitoneally three hours after induction
# Type: in vivo
# Conditions: 100.0 mg/kg intraperitoneally
# Protocol: By subplantar injection of 0.1 ml of a kaolin suspension (100 mg/ml) into Sprague-Dawley-rats, an oedema is induced and the paw volume is measured plethysometrically every hour. Three hours after the induction of the oedema a suspension of the respective test compound in a 1% carboxymethylcellulose sodium solution (5 ml/kg body weight of the animal) is administered intraperitoneally. In table 2 the percentage of alteration in the paw volume due to the inhibition of the oedema by the test compound in relation to the volume determined immediately before the test compound was applied (i.e. the initial value) is shown. (FIGS. of more than 100% indicate a decrease in the volume of the oedema below the initial value): […]
row,Structure (SMILES),Time after administration of the test compound (of maximum inhibition) [h]
1,"Oc1ccc(C#CCCCCCCC#CC(O)C2CCCCC2)cc1O (stereo not drawn) [Example 16, 11-Cyclohexyl-1-(3',4'-dihydroxyphenyl)-11-hydroxy-undeca-1,9-diyne]",1

# Same assay, conditions: 100.0 mg/kg intraperitoneally, 3 h after kaolin; more than 100% = decrease below initial value
row,Structure (SMILES),% Inhibition (Maximum) of oedema [%]
1,"Oc1ccc(C#CCCCCCCC#CC(O)C2CCCCC2)cc1O (stereo not drawn) [Example 16, 11-Cyclohexyl-1-(3',4'-dihydroxyphenyl)-11-hydroxy-undeca-1,9-diyne]",54

# Test system: Sprague-Dawley-rats
# Test: Inhibition of kaolin-induced paw oedema, test compound injected in each paw simultaneously with kaolin
# Type: in vivo
# Conditions: 1 mg injected in each paw simultaneously with kaolin
# Protocol: By subplantar injection of 0.1 ml of a kaolin suspension (100 mg/ml) into Sprague-Dawley-rats, an oedema is induced and the paw volume is measured plethysometrically every hour. Three hours after the induction of the oedema a suspension of the respective test compound in a 1% carboxymethylcellulose sodium solution (5 ml/kg body weight of the animal) is administered intraperitoneally. In table 2 the percentage of alteration in the paw volume due to the inhibition of the oedema by the test compound in relation to the volume determined immediately before the test compound was applied (i.e. the initial value) is shown. (FIGS. of more than 100% indicate a decrease in the volume of the oedema below the initial value):
# In other experiments the test compound was administered simultaneously with the application of the kaolin suspension by injection of 1 mg of the test compound dissolved in 0.1 ml of a 1% carboxymethylcellulose sodium solution in each paw. The following maximum values of inhibition of the oedema or the formation of the oedema, respectively, were determined: […]
Structure (SMILES),% Inhibition (Maximum) of oedema [%],Time after administration of the test compound (of maximum inhibition) [h]
"COc1cc(C#CCCCCCCC#CCO)ccc1O [Example 5, 11-Hydroxy-1-(4'-hydroxy-3'-methoxyphenyl)-undeca-1,9-diyne]",61,3
"Oc1ccc(C#CCCCCCCC#CC(O)C2CCCCC2)cc1O (stereo not drawn) [Example 16, 11-Cyclohexyl-1-(3',4'-dihydroxyphenyl)-11-hydroxy-undeca-1,9-diyne]",45,7
